Experimental data as given in PubChem BioAssay AID492959 (The Scripps Research Institute Molecular Screening Center, 2010).
pIC50: −log10 of the molar value. The source made the active and inactive calls.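 Rule for the calls: active = IC50 of 10 µM or lower; inactive = IC50 above 10 µM.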

Tested on: E. coli AddAB+ with T4 gene 2 phage, OD growth
Assay: inhibition of AddAB recombination enzyme – absorbance, E. coli, T4 phage, dose response (AID 492959);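 note: growth read as OD600 after 18 h at 37 °C; AddAB inhibitors let the phage kill the cells so OD falls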
Details: AddAB enzyme is from H. pylori; T4 phage with nonsense-mutated gene 2

| Compound | IC50 | pIC50 |
| --- | --- | --- |
| Cn1nnnc1N=N/C(=N/Nc1ccccc1)c1ccccc1 | > 119 µM (inactive) |  |
| O=C(Cc1ccc([N+](=O)[O-])cc1)N/N=C/c1ccc([N+](=O)[O-])o1 |  | 5.03 |
| O=C1c2ccccc2NC(c2ccc(-c3cccc([N+](=O)[O-])c3)o2)N1O (stereo not given) | > 119 µM (inactive) |  |
| CCCCCOc1ccc(CSC(=N)N)cc1[N+](=O)[O-] | > 39.5 µM (inactive) |  |
| O=[N+]([O-])c1ccc(N/N=C/c2ccc[nH]2)cc1 | > 119 µM (inactive) |  |
| CC(=O)NC(c1ccc(C(C)C)cc1)c1ccc2cccnc2c1O (stereo not given) | > 118 µM (inactive) |  |
| CCCC(=O)NC(c1ccc(OC)cc1)c1ccc2cccnc2c1O (stereo not given) | > 119 µM (inactive) |  |
| C(=N\Nc1nc2ccccc2s1)/c1ccccn1 | > 119 µM (inactive) |  |
| O=C(O)c1ccc(N/N=C/C=C/c2ccc([N+](=O)[O-])o2)cc1 | 30 µM (inactive) |  |
| CCOc1cccc(/C=N/NC(=O)c2cc(-c3cccn3C)n[nH]2)c1O | > 119 µM (inactive) |  |
| Cc1ccc(C)c(S(=O)(=O)N2CCN(Cc3ccc(O)c4ncccc34)CC2)c1 | > 119 µM (inactive) |  |
| Oc1ccc2ccccc2c1/C=N/Nc1nnc(-c2ncc[nH]2)c2ccccc12 | > 119 µM (inactive) |  |
| CCCNC(=O)c1ccc2c(=O)c(O)c(-c3ccsc3)[nH]c2c1 | > 118 µM (inactive) |  |
| CC(=O)NC1CCCN(O)C(=O)/C=C(\C)CCOC(=O)C(NC(C)=O)CCCN(O)C(=O)/C=C(\C)CCOC(=O)C(NC(C)=O)CCCN(O)C(=O)/C=C(\C)CCOC1=O (stereo not given) | > 119 µM (inactive) |  |
| O=C(CN1C(=O)S/C(=C\c2ccccc2)C1=O)NNC(=O)c1ccccc1O | > 119 µM (inactive) |  |
| O=C(CSc1nc2ccccc2[nH]1)Nc1ccc(N2CCOCC2)cc1 | > 118 µM (inactive) |  |
| O=C(NC(NC(=S)Nc1ccc(Cl)cc1)C(Cl)(Cl)Cl)c1ccco1 (stereo not given) | > 119 µM (inactive) |  |
| C/C(=N\Nc1ccc2nncn2n1)c1ccccn1 | > 119 µM (inactive) |  |
| O=C1c2ccccc2C(=O)c2[nH]c(=O)[nH]c21 | > 119 µM (inactive) |  |
| O=C1c2ccccc2NC(c2ccc(-c3ccc(Br)cc3)o2)N1O (stereo not given) | > 119 µM (inactive) |  |
| O=C(COC(=O)c1ccc([N+](=O)[O-])s1)c1ccc[nH]1 | > 119 µM (inactive) |  |
| O=C(Nc1nc(-c2cccs2)cs1)c1ccc([N+](=O)[O-])o1 | 12 µM (inactive) |  |
| CC(Sc1ccsc1[N+](=O)[O-])C(=O)NCc1ccco1 (stereo not given) | > 119 µM (inactive) |  |
| CCCCC(=O)NC(c1ccc(N(CC)CC)cc1)c1ccc2cccnc2c1O (stereo not given) | > 119 µM (inactive) |  |
| Cc1ccccc1NC(=O)c1ccc([N+](=O)[O-])o1 | 30.9 µM (inactive) |  |

| Compound | IC50 | pIC50 |
| --- | --- | --- |
| O=[N+]([O-])c1cc(O)c2ncccc2c1 | 46.5 µM (inactive) |  |
| Cc1ccc(CNC(=O)c2ccc3c(=O)c(O)c(-c4ccc(C)cc4)[nH]c3c2)cc1 | > 119 µM (inactive) |  |
| Cc1c(Cl)cccc1NC(=S)NCc1ccccc1Cl | > 119 µM (inactive) |  |
| CCC(=O)NC(c1ccc(OC)cc1)c1cc(Cl)c2cccnc2c1O (stereo not given) | > 119 µM (inactive) |  |
| Nc1c(Cl)ncnc1N/N=C/c1ccc2ccccc2n1 | > 119 µM (inactive) |  |
| CC(=O)NC(c1ccc2ccccc2c1)c1ccc2cccnc2c1O (stereo not given) | > 118 µM (inactive) |  |
| COc1cccc(-n2c(SCc3cc(=O)oc4cc(O)c(O)cc34)nc3ccccc3c2=O)c1 | > 119 µM (inactive) |  |
| CCn1cc(C(=O)NCCc2ccccc2)c(=O)c2cc(F)c(N3CCN(C)CC3)cc21 | 20.4 µM (inactive) |  |
| N/C(=N/OC(=O)c1ccc(Cl)cc1)c1ncc([N+](=O)[O-])s1 | 111 µM (inactive) |  |
| Cc1ccc(NC(=O)Cn2cnc3ccccc32)cc1C | > 119 µM (inactive) |  |
| O=Nc1ccc(O)c2ncccc12 |  | 5.01 |
| CC(=O)Nc1ccc2nc(NC(=O)c3ccc([N+](=O)[O-])o3)sc2c1 | > 13.2 µM (inactive) |  |
| O=C(N/N=C/c1ccc(O)cc1O)c1ccc(CN2C(=O)c3cccc4cccc2c34)cc1 | > 119 µM (inactive) |  |
| CC(C)C(=O)NC(c1ccc(Cl)cc1Cl)c1ccc2cccnc2c1O (stereo not given) | > 119 µM (inactive) |  |
| C=CCn1c(Sc2ncc([N+](=O)[O-])s2)n[nH]c1=O | 11.8 µM (inactive) |  |
| C=CCSc1nsc(NC(=O)Nc2ccc(F)cc2)n1 | > 119 µM (inactive) |  |
| CCn1nnc(NC(=O)c2ccc([N+](=O)[O-])o2)n1 | 21.1 µM (inactive) |  |
| O=C(c1ccc([N+](=O)[O-])o1)N1CCOCC1 | 15.3 µM (inactive) |  |
| C=CCc1cccc(/C=N/NC(=O)CNc2ccccc2OC)c1O | > 119 µM (inactive) |  |
| CC1(C)OC(=O)C(=NNc2ccc(O)cc2)C(=O)O1 | > 119 µM (inactive) |  |
| Cc1onc(-c2ccccc2)c1C(=O)NC(=S)NNC(=O)c1ccc(O)cc1O | > 39.5 µM (inactive) |  |
| COc1cccc(/C=C2/SC(=S)N(CC(=O)NNC(=O)c3ccccc3O)C2=O)c1 | > 119 µM (inactive) |  |
| COc1ccc(OCC(O)CNc2ccc(Br)cc2)cc1 (stereo not given) | > 119 µM (inactive) |  |
| CCCCC(=O)NC(c1ccc(N(C)C)cc1)c1ccc2cccnc2c1O (stereo not given) | > 119 µM (inactive) |  |
| O=[N+]([O-])c1ccc(/C=N/n2cnc3ccccc32)s1 | 46.8 µM (inactive) |  |
